Source: patent US10786690B2, “Amide derivatives of polycaffeoylquinic acids, process for producing same and uses thereof” (TEMISIS, priority 2016, dated 2020)

Columns and labels:
[1] = test system: Normal Human Epidermal Keratinocytes (NHEKs); assay: Microscopic observation of NHEK cell survival 48 h after inflammatory treatment; type: cell-based; details: for Result at 48 h: cell survival: NHEK cultures 48 h after inflammatory treatment (10 ng/mL PMA + 2 μM calcium ionophore A23187), microscopic observation; for effect on cell survival / cellular protection against inflammation: NHEK cultures 48 h after inflammatory treatment, summary in words
Experimental: The cells, treated and not treated by the compounds to be tested, were observed under an optical microscope 48 h after the following inflammatory treatment: 10 ng/mL PMA/H2O+2 μM calcium ionophore A23187/DMSO.
NHEKs were brought into contact or not with the compounds to be tested. After 2 h, the cells underwent or not an inflammation treatment (10 ng/mL PMA/H2O+2 μM calcium ionophore A23187/DMSO).
The cells were observed under an optical microscope 48 h after the inflammatory treatment.

[2] = test system: IL-8; assay: IL-8 production by NHEKs in the inflammatory state (PMA), ELISA; type: cell-based, human; details: PMA 10 ng/ml 24 h, compounds 50 μM, dexamethasone 10 μM, relative to PMA induced control (100%)
Experimental: (§1) The study was carried out on Normal Human Epidermal Keratinocytes (NHEKs) (Lonza, CC-2507, origin: foreskin) in monolayer culture in Epilife medium (Invitrogen, M-EPI-500-A) containing the components of the Human Keratinocyte Growth Supplement (HKGS) mixture (Invitrogen, S-001-K) added separately, except hydrocortisone having anti-inflammatory properties.
(§2) For the quantification of IL-8 and PGE2, the inflammatory state of the NHEKs in culture was induced by treatment with PMA (phorbol myristate acetate/10 ng/ml/H2O) for 24 h. Induction of IL-6 was achieved by treatment with PMA (10 ng/ml/H2O) combined with calcium ionophore A23187 (2 μM/DMSO) in medium containing calcium at a concentration of 0.8 mM. […]
(§3) Quantification of the various inflammatory mediators was carried out with specific kits, based on a standard curve, according to the instructions provided by the kits' suppliers, R&D Systems and Cayman Chemical.
(§4) Before induction of the inflammatory state, the NHEKs were treated with the compounds and reference molecules for 2 h. The inflammatory state was then induced according to the conditions described in the methodology section, the culture supernatants were collected, and the various inflammatory mediators were quantified by the ELISA technique. […]

[3] = test system: LTB4; assay: LTB4 production by NHEKs in the inflammatory state (arachidonic acid + calcium ionophore), ELISA; type: cell-based, human; details: arachidonic acid 1 μM + calcium ionophore A23187 2 h, compounds 50 μM, NDGA 2 μM, relative to induced control
Experimental: as §1
The induction of LTB4 production having a very fast kinetics, the scheme was adapted. In this case, the inflammatory state was induced for 2 h by applying arachidonic acid (a.a./1 μM/ethanol) combined with calcium ionophore A23187 (2 μM/DMSO). Nordihydroguaiaretic acid (NDGA) was used as reference molecule (2 μM/ethanol).
(§5) The effect of the compounds was studied by applying them to the keratinocyte culture medium 2 h prior to induction of the inflammatory state as well as during induction (2 h for LTB4, 24 h for IL-8, PGE2, IL-6 and TNF-α).
(§6) Each condition was carried out in triplicate cultures and the supernatants were recovered at the end of the various treatments.
as §3
(§7) Before induction of the inflammatory state, the NHEKs were treated with the compounds and reference molecules for 2 h. The inflammatory state was then induced according to the conditions described in the methodology section, the culture supernatants were collected, and the various inflammatory mediators were quantified by the ELISA technique.
The effects of the compounds on LTB4 production are shown in FIG. 8 and are expressed as a percentage of the treatment with arachidonic acid (a.a.) combined with calcium ionophore A23187 set at 100%.

[4] = test system: PGE2; assay: PGE2 production by NHEKs in the inflammatory state (PMA), ELISA; type: cell-based, human; details: PMA 10 ng/ml 24 h, compounds 50 μM, indomethacin 10 μg/ml, relative to PMA induced control (100%)
Experimental: as §1
For the quantification of IL-8 and PGE2, the inflammatory state of the NHEKs in culture was induced by treatment with PMA (phorbol myristate acetate/10 ng/ml/H2O) for 24 h. Induction of IL-6 was achieved by treatment with PMA (10 ng/ml/H2O) combined with calcium ionophore A23187 (2 μM/DMSO) in medium containing calcium at a concentration of 0.8 mM. TNF-α secretion was induced by a combination of PMA (10 ng/ml/H2O) and calcium ionophore A23187 (2 μM/DMSO) applied for 24 h (TNF-α) in medium containing 0.06 mM calcium. The reference molecules used are dexamethasone (10 μM/H2O) and indomethacin (10 μg/ml/ethanol).
as §5, §6, §3, §7
The effect of the compounds on PGE2 production is presented in FIG. 5 and is expressed as a percentage of the PMA treatment set at 100%.

[5] = test system: TNF-α; assay: TNF-α production by NHEKs in the inflammatory state (PMA + calcium ionophore, 0.06 mM Ca2+), ELISA; type: cell-based, human; details: PMA + calcium ionophore A23187 24 h, compounds 50 μM, dexamethasone 10 μM, relative to induced control
Experimental: as §1, §2, §3, §4

[6] = test system: IL-6; assay: IL-6 production by NHEKs in the inflammatory state (PMA + calcium ionophore, 0.8 mM Ca2+), ELISA; type: cell-based, human; details: PMA + calcium ionophore A23187, 0.8 mM Ca2+, compounds 50 μM, dexamethasone 10 μM, relative to induced control
Experimental: as §1
For the quantification of IL-8 and PGE2, the inflammatory state of the NHEKs in culture was induced by treatment with PMA (phorbol myristate acetate/10 ng/ml/H2O) for 24 h. […]
as §3, §7
The effect of the compounds on IL-6 production by NHEKs in the inflammatory state is shown in FIG. 6 and is expressed as a percentage of the treatment with PMA combined with calcium ionophore A23187 (under high-calcium conditions: 0.8 mM Ca2+).

| Structure (SMILES) | Result at 48 h: cell survival [1] | effect on cell survival / cellular protection against inflammation [1] | IL-8 production [2] | LTB4 production [3] | PGE2 production [4] | TNF-α production [5] | IL-6 production [6] |
| --- | --- | --- | --- | --- | --- | --- | --- |
| CCCCCCCCCCCCNC(=O)[C@]1(O)C[C@@H](OC(=O)/C=C/c2ccc(O)c(O)c2)[C@@H](O)[C@H](OC(=O)/C=C/c2ccc(O)c(O)c2)C1 [PAT1648, (2E,2′E)-((1R,2S,3R,5S)-5-(dodecylcarbamoyl)-2,5-dihydroxycyclohexane-1,3-diyl) bis(3-(3,4-dihydroxyphenyl) acrylate)] | Confluent culture: 100% | strong cellular protection against inflammation | inhibit/reduce IL-8 production to the baseline level | block/decrease, in a very highly significant manner | very highly significantly decrease | most marked effects and are more effective than dexamethasone itself | largest decreases and are more effective than dexamethasone itself |
| C[C@@H]1C[C@H]2[C@@H]3CCC4=CC(=O)C=C[C@]4(C)[C@@]3(F)[C@@H](O)C[C@]2(C)[C@@]1(O)C(=O)CO [dexamethasone] | 10% cell survival |  |  |  |  |  |  |
| O=C(/C=C/c1ccc(O)c(O)c1)O[C@@H]1C[C@](O)(C(=O)O)C[C@@H](OC(=O)/C=C/c2ccc(O)c(O)c2)[C@H]1O [PAT965, 3,5-O-Dicaffeoylquinic] | 10% cell survival | little or no effect on cell survival |  |  |  |  |  |
| COc1ccc2c(c1)c(CC(=O)O)c(C)n2C(=O)c1ccc(Cl)cc1 [indomethacin, reference compound] |  |  |  |  | reduces this PGE2 production in the culture supernatants to an almost undetectable level |  |  |
| CCCCNC(=O)[C@]1(O)C[C@@H](OC(=O)/C=C/c2ccc(O)c(O)c2)[C@@H](O)[C@H](OC(=O)/C=C/c2ccc(O)c(O)c2)C1 [PAT1658, (2E,2′E)-((1R,2S,3R,5S)-5-(butylcarbamoyl)-2,5-dihydroxycyclohexane-1,3-diyl) bis(3-(3,4-dihydroxyphenyl)acrylate)] | 80% cell survival | strong cellular protection against inflammation |  | block/decrease, in a very highly significant manner | very highly significantly decrease |  |  |
| CC(Cc1ccc(O)c(O)c1)C(C)Cc1ccc(O)c(O)c1 (stereo not drawn) [NDGA, Nordihydroguaiaretic acid, reference compound] |  |  |  | very highly significantly inhibits |  |  |  |
| O=C(/C=C/c1ccc(O)c(O)c1)O[C@H]1[C@H](O)C[C@](O)(C(=O)O)C[C@H]1OC(=O)/C=C/c1ccc(O)c(O)c1 [PAT967, 4,5-O-Dicaffeoylquinic] | 10% cell survival | little or no effect on cell survival |  |  | very highly significantly decrease |  |  |
| O=C(/C=C/c1ccc(O)c(O)c1)O[C@@H]1[C@H](O)C[C@@](O)(C(=O)O)C[C@H]1OC(=O)/C=C/c1ccc(O)c(O)c1 [PAT964, 3,4-O-Dicaffeoylquinic] | 10% cell survival | little or no effect on cell survival |  |  |  |  |  |
